PMC12164691 (Molecular Pharmacology, 2021)
pIC50: −log10 of the molar value.

Columns and labels:
TAS2R8 = TAS2R8 (Homo sapiens, UniProt Q9NYW2)
TAS2R14 = TAS2R14 (Homo sapiens, UniProt Q9NYV8)
TAS2R39 [1] = molecular target: T1, TAS2R39 (Homo sapiens, UniProt P59534)
T1 sequence (P59534 1-338): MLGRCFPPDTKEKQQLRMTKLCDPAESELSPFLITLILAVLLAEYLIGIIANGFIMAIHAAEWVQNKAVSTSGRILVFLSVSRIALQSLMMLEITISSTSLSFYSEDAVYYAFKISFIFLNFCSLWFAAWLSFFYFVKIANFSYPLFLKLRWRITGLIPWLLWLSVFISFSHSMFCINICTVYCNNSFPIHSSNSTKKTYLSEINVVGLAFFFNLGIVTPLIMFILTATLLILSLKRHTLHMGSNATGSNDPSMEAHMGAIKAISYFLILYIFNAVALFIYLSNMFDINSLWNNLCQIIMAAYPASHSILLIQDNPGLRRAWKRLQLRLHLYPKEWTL

TAS2R39 [2] = molecular target: T1, TAS2R39; assay: Calcium mobilization in HEK293 cells expressing TAS2R39 and Gα16-gust44; antagonism of […] TAF (also of […] denatonium, IC50 […]); assay type: cell-based

Sequence of TAS2R14 (Q9NYV8 whole entry): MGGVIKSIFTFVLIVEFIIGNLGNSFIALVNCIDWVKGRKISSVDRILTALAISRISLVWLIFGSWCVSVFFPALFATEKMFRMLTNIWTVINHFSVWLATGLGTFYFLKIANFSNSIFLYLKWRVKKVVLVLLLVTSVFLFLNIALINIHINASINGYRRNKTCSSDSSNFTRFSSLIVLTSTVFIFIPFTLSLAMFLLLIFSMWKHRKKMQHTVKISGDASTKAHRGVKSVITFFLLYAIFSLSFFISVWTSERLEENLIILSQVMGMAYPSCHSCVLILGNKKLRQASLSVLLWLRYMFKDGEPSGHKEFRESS
Sequence of TAS2R8 (Q9NYW2 whole entry): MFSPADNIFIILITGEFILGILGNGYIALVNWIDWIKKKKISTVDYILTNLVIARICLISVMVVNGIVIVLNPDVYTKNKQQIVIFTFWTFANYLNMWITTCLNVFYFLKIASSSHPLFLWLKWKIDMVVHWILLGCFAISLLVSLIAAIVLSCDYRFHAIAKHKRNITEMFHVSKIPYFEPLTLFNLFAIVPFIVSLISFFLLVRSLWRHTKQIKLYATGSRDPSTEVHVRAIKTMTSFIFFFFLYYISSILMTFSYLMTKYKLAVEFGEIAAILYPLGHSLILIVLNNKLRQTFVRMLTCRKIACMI

Row | SMILES | Calcium mobilization in HEK293 cells expressing TAS2R8 and Gα16-gust44; concentr (TAS2R8) | Calcium mobilization in HEK293 cells expressing TAS2R14 and Gα16-gust44; concent (TAS2R14) | Calcium mobilization in HEK293 cells expressing TAS2R39 and Gα16-gust44; concent (TAS2R39 [1]) | pIC50 (TAS2R39 [2])
1 | CC(C)OC(=O)[C@H](C)N[P@](=O)(CO[C@H](C)Cn1cnc2c(N)ncnc21)Oc1ccccc1 [TAF, tenofovir alafenamide] | cells expressing TAS2R8 and TAS2R14 showed small but significant responses to TAF | cells expressing TAS2R8 and TAS2R14 showed small but significant responses to TAF | TAF activates TAS2R1, TAS2R8, TAS2R14, and TAS2R39 concentration-dependently. | –
2 | Cc1ccc2oc(-c3ccccc3)cc(=O)c2c1 [6-MF, 6-methylflavone] | – | – | – | 4.66
